# From patent US20210221822A1, “TRICYCLIC DERIVATIVES INHIBITOR, PREPARATION METHOD, AND APPLICATIONS THEREOF” (Jiangsu Hansoh Pharmaceutical Group Co., Ltd., priority 2018, published 2021)
# Experiments:
# [1] = biological target: T1, PI3Kα (Homo sapiens, UniProt P42336); experiment: ADP-Glo lipid kinase assay, PI3Kα kinase activity; format: biochemical; conditions: for IC50: ADP-Glo, 0.1 nM enzyme, 120 min, 50 μM ATP; for Selectivity of PI3Kα vs PI3Kβ: ratio of IC50 PI3Kβ to IC50 PI3Kα; for Selectivity of PI3Kα vs PI3Kγ: ratio of IC50 PI3Kγ to IC50 PI3Kα; for Selectivity of PI3Kα vs PI3Kδ: ratio of IC50 PI3Kδ to IC50 PI3Kα
# T1 construct: purchased Promega V1721
# Procedure: (§1) Experimental method: Promega's ADP-Glo lipid kinase assay method (Promega #V9102) was applied in this experiment. Lipid kinase PI3Kα/β/γ/δ catalyzed the generation of ADP from ATP in the presence of the substrate PIP2: 3PS and ATP. The lipid kinase activity was characterized by measuring the ADP content in the reaction, and the half inhibitory concentration IC50 of the compound on inhibiting PI3Kα/β/γ/δ kinase activity was thus obtained.
# (§2) The kinase reaction was carried out in a white 384-well plate (Perkin Elmer #6007299). 2 μL of the compound solution of different concentrations diluted with ddH2O containing 1% DMSO was added to each well. 2 μL of ddH2O containing 1% DMSO was added to the positive control well. 2 μL of 0.1-2 nM PI3K kinase solution diluted with 5× kinase buffer (HEPES 250 mM, MgCl2 15 mM, NaCl 250 mM, BSA 0.05%) was added to each well. 2 μL of 5× kinase buffer was added to the negative control well. 4 μL of 50 μM substrate PIP2: 3PS (Promega #V1701) formulated with 10× Dilution buffer and ddH2O was added to all wells. Finally, 2 μL of […] ATP solution diluted with water was added to start the reaction. After the reaction was carried out at room temperature for 90 to 120 minutes, 10 μL of ADP-Glo Reagent (containing 10 mM MgCl2) was added to each well, and reacted at room temperature for 60 minutes to remove excess ATP in the reaction. 20 μL of Kinase Detection Reagent was added to each well, and reacted at room temperature in the dark for 20 minutes. The chemiluminescence value was measured by the BioTek Synergy H1 microplate reader.
# (§3) The percentage inhibition data of the compound-treated well was calculated through the positive control well (DMSO control well) and negative control well (no kinase added) on the plate {% inhibition rate=100−[(test compound value−negative control value)]/(positive control value−negative control value)×100}. The IC50 value was calculated by fitting the data of different concentrations and corresponding percentage inhibition rates to a four-parameter nonlinear logic formula with GraphPad prism.
# [2] = biological target: T2, PI3Kγ (Homo sapiens, UniProt P48736); experiment: ADP-Glo lipid kinase assay, PI3Kγ kinase activity; format: biochemical; conditions: 0.4 nM enzyme, 120 min, 50 μM ATP
# T2 construct: purchased Thermofisher PV4786
# Procedure: as §1, §2, §3
# [3] = biological target: T3, PI3Kβ (Homo sapiens, UniProt P42338); experiment: ADP-Glo lipid kinase assay, PI3Kβ kinase activity; format: biochemical; conditions: 0.4 nM enzyme, 90 min, 100 μM ATP
# T3 construct: purchased Carna 11-102
# Procedure: as §1, §2, §3
# [4] = biological target: T4, PI3Kδ (Homo sapiens, UniProt O00329); experiment: ADP-Glo lipid kinase assay, PI3Kδ kinase activity; format: biochemical; conditions: 0.1 nM enzyme, 90 min, 100 μM ATP
# T4 construct: purchased Carna 11-103
# Procedure: as §1, §2, §3
# [5] = Pharmacokinetic (PK) assay in mice; format: in vivo; conditions: male, Balb/c, mouse, plasma, po, single intragastric 5 mg/kg; for AUC(0-t): read-out: Area under curve AUC0-t; for AUC(0-inf): read-out: Area under curve AUC0-∞; for half-life: read-out: Half-life t1/2(h) (converted); for MRT: read-out: Mean residence time MRT; for Tmax: read-out: Peak time tmax; for Cmax: read-out: Plasma concentration Cmax
# Procedure: The pharmacokinetic assay of the preferred compounds of the examples of the present invention in mice was carried out in Balb/c male mice (Shanghai Jiesijie Laboratory Animal Co., LTD). • Administration mode: single intragastric administration. • Administration dose: 5 mg/10 ml/kg (body weight). • Formulation: the compound was dissolved in 0.5% CMC-Na by ultrasound to obtain a clear solution or homogeneous suspension. • Sampling points: 0.5, 1, 2, 4, 6, 8 and 24 hours after administration. • Sample process: • 1) 0.1 mL of blood was taken from the orbit, placed in a K2-EDTA tube, and centrifuged for 5 to 20 minutes at room temperature at 1000 to 3000×g to separate the plasma, which was then stored at −80° C. • 2) 160 uL of acetonitrile was added to 40 uL of plasma sample for precipitation, and then the mixture was centrifuged for 5 to 20 minutes at 500 to 2000×g. • 3) 100 uL of processed supernatant was taken and analyzed by LC/MS/MS assay to determine the concentration of the test compound. • LC-MS/MS assay: • Liquid chromatography condition: Shimadzu LC-20AD pump • Mass spectrometry condition: AB Sciex API 4000 mass spectrometer • Chromatographic column: phenomenex Gemiu 5 μm C18 50×4.6 mm • Mobile phase: solution A was 0.1% aqueous formic acid solution, and solution B was acetonitrile • Flow rate: 0.8 mL/min • Elution time: 0-4 minutes gradient elution • Pharmacokinetics: […]
# The main parameters were calculated using WinNonlin 6.1.
# T4 sequence (O00329 whole entry): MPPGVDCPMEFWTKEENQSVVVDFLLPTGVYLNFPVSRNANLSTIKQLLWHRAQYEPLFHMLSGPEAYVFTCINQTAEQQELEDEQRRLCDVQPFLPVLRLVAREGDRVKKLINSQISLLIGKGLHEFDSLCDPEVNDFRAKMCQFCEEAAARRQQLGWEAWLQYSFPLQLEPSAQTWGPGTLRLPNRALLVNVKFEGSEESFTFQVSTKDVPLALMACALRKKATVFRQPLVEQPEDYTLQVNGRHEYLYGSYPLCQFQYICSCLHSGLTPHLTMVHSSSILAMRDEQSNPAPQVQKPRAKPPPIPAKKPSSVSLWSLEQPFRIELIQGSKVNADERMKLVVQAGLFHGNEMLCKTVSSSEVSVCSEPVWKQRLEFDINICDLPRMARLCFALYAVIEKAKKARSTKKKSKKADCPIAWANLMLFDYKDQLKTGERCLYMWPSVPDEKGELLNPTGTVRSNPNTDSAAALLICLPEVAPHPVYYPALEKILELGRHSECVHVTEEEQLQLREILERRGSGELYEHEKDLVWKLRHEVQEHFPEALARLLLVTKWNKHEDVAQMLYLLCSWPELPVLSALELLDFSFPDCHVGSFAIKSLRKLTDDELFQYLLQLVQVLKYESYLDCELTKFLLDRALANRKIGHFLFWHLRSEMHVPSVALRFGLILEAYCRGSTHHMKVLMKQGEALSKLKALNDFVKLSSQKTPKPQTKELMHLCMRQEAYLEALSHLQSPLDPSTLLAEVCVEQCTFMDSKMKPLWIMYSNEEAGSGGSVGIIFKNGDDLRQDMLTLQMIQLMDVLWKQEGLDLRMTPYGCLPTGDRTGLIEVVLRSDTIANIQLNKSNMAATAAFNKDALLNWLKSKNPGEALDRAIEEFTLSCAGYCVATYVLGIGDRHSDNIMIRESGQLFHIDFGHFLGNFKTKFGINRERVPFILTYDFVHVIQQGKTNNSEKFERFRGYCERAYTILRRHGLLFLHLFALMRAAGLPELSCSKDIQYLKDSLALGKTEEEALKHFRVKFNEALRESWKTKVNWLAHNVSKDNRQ
# T4 sequence (P27986 whole entry partner): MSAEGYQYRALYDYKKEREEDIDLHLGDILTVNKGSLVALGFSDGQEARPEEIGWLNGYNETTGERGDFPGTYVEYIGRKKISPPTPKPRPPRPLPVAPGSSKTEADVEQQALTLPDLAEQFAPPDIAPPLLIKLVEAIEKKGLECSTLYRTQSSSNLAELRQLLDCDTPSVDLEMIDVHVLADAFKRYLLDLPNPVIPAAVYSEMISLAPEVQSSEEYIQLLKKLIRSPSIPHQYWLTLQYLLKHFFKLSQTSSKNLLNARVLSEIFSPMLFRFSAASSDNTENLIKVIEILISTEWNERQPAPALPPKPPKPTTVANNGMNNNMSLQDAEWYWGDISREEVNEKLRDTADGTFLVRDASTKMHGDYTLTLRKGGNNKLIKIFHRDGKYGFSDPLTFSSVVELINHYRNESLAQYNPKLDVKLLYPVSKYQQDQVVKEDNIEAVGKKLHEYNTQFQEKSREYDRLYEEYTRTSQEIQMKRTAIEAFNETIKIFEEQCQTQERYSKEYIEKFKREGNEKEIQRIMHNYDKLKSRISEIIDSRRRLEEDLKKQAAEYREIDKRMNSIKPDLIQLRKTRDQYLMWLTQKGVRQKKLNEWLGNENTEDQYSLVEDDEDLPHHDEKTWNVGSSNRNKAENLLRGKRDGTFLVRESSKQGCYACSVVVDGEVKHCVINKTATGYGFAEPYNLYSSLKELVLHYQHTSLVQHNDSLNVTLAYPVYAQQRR
# T1 sequence (P42336 whole entry): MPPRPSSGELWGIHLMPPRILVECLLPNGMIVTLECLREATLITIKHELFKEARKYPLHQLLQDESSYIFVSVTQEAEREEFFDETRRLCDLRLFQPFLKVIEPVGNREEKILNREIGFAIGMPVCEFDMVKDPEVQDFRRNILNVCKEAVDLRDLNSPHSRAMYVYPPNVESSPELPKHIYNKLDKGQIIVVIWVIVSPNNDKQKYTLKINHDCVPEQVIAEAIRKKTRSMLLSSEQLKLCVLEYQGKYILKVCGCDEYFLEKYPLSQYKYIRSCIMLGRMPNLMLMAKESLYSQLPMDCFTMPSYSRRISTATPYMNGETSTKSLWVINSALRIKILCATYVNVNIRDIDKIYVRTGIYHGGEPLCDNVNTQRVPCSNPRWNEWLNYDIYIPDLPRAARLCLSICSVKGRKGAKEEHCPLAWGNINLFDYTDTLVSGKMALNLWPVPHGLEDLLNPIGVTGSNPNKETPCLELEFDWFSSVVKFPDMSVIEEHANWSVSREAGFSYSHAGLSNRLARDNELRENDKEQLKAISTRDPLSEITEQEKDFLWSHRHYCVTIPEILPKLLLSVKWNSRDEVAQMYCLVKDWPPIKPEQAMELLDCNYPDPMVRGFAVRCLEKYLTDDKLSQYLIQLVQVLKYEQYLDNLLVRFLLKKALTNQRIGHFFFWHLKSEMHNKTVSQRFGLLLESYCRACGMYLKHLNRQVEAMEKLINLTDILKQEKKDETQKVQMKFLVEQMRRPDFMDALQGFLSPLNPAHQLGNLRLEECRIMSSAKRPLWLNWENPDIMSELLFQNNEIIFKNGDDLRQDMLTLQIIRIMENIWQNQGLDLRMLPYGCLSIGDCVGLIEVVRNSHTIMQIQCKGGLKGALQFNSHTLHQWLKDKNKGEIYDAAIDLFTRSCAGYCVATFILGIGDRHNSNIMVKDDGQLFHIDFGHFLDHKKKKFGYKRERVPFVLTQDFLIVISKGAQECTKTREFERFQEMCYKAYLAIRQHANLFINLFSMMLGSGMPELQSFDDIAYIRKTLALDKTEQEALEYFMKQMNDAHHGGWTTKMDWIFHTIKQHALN
# T1 sequence (P27986 whole entry partner): as the sequence (P27986 whole entry partner) above
# T3 sequence (P42338 whole entry): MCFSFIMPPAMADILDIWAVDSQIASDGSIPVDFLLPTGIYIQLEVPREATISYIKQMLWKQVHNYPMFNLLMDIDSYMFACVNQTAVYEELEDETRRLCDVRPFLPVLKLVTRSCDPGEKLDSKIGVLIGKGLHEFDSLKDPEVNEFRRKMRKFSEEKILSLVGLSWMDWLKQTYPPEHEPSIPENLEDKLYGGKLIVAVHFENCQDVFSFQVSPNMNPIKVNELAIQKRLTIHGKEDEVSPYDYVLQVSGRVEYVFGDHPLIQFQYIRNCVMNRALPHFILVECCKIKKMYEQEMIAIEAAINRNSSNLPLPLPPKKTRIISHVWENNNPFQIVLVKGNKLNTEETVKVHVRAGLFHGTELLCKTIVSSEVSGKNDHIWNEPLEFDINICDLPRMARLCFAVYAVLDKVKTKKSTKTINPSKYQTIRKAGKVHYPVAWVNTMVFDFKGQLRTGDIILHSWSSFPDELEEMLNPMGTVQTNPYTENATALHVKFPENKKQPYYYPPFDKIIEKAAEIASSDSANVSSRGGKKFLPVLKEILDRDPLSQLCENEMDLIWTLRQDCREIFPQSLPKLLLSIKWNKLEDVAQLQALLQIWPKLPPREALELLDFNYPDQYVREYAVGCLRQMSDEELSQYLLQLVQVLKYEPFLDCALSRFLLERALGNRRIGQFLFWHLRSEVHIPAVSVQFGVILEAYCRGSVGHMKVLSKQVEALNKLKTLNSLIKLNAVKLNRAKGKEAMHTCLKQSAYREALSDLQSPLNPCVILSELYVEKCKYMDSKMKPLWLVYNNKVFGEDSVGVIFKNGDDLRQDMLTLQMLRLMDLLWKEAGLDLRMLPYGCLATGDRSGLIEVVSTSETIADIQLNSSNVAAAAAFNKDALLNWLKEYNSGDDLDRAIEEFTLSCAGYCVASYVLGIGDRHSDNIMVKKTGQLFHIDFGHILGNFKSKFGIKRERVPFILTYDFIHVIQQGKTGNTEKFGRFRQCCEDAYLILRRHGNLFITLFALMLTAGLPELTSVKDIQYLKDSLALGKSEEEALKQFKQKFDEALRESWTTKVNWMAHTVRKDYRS
# T3 sequence (P27986 whole entry partner): as the sequence (P27986 whole entry partner) above
# T2 sequence (P48736 whole entry): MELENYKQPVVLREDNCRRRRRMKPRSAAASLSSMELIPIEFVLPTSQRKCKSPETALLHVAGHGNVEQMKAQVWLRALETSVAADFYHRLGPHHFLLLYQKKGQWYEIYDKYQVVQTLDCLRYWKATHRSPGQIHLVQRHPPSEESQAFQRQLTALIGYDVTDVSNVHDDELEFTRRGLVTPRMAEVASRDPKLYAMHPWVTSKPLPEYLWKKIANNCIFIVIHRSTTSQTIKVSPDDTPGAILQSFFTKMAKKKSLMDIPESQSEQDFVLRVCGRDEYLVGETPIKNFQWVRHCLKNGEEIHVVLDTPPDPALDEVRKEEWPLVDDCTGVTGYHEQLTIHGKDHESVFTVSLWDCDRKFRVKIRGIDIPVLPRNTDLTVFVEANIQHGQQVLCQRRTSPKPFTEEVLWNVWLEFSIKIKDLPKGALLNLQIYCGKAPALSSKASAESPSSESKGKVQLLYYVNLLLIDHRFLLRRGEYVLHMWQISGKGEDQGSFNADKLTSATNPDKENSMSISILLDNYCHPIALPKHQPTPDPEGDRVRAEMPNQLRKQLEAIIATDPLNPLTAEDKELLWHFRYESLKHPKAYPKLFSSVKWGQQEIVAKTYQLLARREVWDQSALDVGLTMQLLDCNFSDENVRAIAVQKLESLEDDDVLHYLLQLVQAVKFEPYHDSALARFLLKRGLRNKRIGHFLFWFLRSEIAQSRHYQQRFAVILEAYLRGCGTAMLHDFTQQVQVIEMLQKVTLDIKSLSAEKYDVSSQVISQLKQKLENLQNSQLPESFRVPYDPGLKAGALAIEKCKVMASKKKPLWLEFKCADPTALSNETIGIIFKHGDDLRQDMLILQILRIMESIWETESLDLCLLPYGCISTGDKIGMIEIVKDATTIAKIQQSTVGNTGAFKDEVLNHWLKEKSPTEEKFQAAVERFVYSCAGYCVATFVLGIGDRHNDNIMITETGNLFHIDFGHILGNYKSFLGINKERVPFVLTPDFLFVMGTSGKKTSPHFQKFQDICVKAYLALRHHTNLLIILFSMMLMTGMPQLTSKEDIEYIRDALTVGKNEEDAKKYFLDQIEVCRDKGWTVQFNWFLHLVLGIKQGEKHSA
Compound,IC50 [1] [nM],IC50 [2] [nM],IC50 [3] [nM],IC50 [4] [nM],Selectivity of PI3Kα vs PI3Kβ [1],AUC(0-t) [5] [ng·h/mL],AUC(0-inf) [5] [ng·h/mL],half-life [5] [h],MRT [5] [h],Tmax [5] [h],Cmax [5] [ng/mL],Selectivity of PI3Kα vs PI3Kγ [1],Selectivity of PI3Kα vs PI3Kδ [1]
"CC(Nc1ccc2c(c1)OCCn1cc(N3C(=O)OC(C)[C@H]3C(F)F)nc1-2)C(N)=O (stereo in doubt) [Example 55, (R)-2-((2-((4S,5R)-4-(difluoromethyl)-5-methyl-2-oxooxazolidin-3-yl)-5,6-dihydrobenzo[f]imidazo[1,2-d][1,4]oxazepin-9-yl)amino)propanamide]",1.7,363,1870,213,–,–,–,–,–,–,–,–,–
"C[C@H](Nc1ccc2c(c1)OCCn1c-2nc(N2C(=O)OC[C@H]2C(F)F)c1F)C(N)=O [Example 10, (S)-2-((2-((S)-4-(difluoromethyl)-2-oxooxazolidin-3-yl)-3-fluoro-5,6-dihydrobenzo[f]imidazo[1,2-d][1,4]oxazepin-9-yl)amino)propanamide]",7.9,1790,> 10000,1400,>1266,–,–,–,–,–,–,–,–
"CC(C)[C@H](Nc1ccc2c(c1)OCCn1cc(N3C(=O)OC[C@H]3C(F)F)nc1-2)C(N)=O [Example 38, (S)-2-((2-((S)-4-(difluoromethyl)-2-oxooxazolidin-3-yl)-5,6-dihydrobenzo[f]imidazo[1,2-d][1,4]oxazepin-9-yl)amino)-3-methylbutanamide]",4,447,1430,410,–,–,–,–,–,–,–,–,–
"C[C@@H](C(N)=O)N(C)c1ccc2c(c1)OCCn1cc(N3C(=O)OC[C@H]3C(F)F)nc1-2 [Example 43, (S)-2-((2-((S)-4-(difluoromethyl)-2-oxooxazolidin-3-yl)-5,6-dihydrobenzo[f]imidazo[1,2-d][1,4]oxazepin-9-yl)(methyl)amino)propanamide]",0.86,557,283,25,–,3440,3500,1,1.8,0.5,2060,–,–
"C[C@H](Nc1ccc2c(c1)OCCn1cc(N3C(=O)N(C)C[C@H]3C(F)F)nc1-2)C(N)=O [Example 53, (S)-2-((2-((S)-5-(difluoromethyl)-3-methyl-2-oxoimidazolidin-1-yl)-5,6-dihydrobenzo[f]imidazo[1,2-d][1,4]oxazepin-9-yl)amino)propanamide]",5,402,6190,373,–,1280,1290,0.8,1.2,0.5,1090,80,–
"C[C@H](Nc1ccc2c(c1)OCCn1cc(N3CC(F)(F)COC3=O)nc1-2)C(N)=O [Example 66, (S)-2-((2-(5,5-difluoro-2-oxo-1,3-oxazinan-3-yl)-5,6-dihydrobenzo[f]imidazo[1,2-d][1,4]oxazepin-9-yl)amino)propanamide]",9.3,2080,4570,653,492,–,–,–,–,–,–,223,70
"C[C@H](Nc1cc(F)c2c(c1)OCCn1cc(N3C(=O)OC[C@H]3C(F)F)nc1-2)C(N)=O [Example 78, (S)-2-((2-((S)-4-(difluoromethyl)-2-oxooxazolidin-3-yl)-11-fluoro-5,6-dihydrobenzo[f]imidazo[1,2-d][1,4]oxazepin-9-yl)amino)propanamide]",5.2,510,2790,459,–,–,–,–,–,–,–,–,–
"COC[C@H](Nc1ccc2c(c1)OCCn1cc(N3C(=O)OC[C@H]3C(F)F)nc1-2)C(N)=O [Example 90, (S)-2-((2-((S)-4-(difluoromethyl)-2-oxooxazolidin-3-yl)-5,6-dihydrobenzo[f]imidazo[1,2-d][1,4]oxazepin-9-yl)amino)-3-methoxypropanamide]",–,–,–,–,–,2070,2090,1,1.6,0.5,1290,–,–
"C[C@H](Nc1ccc2c(c1)OCCn1cc(N3C(=O)CC[C@H]3C(F)F)nc1-2)C(N)=O [Example 97, (S)-2-((2-((S)-2-(difluoromethyl)-5-oxopyrrolidin-1-yl)-5,6-dihydrobenzo[f]imidazo[1,2-d][1,4]oxazepin-9-yl)amino)propanamide]",2.1,510,1650,190,–,–,–,–,–,–,–,–,90
"COC[C@H](Nc1ccc2c(c1F)OCCn1cc(N3C(=O)SC[C@H]3C(F)F)nc1-2)C(N)=O [Example 109, (S)-2-((2-((R)-4-(difluoromethyl)-2-oxothiazolidin-3-yl)-8-fluoro-5,6-dihydrobenzo[f]imidazo[1,2-d][1,4]oxazepin-9-yl)amino)-3-methoxypropanamide]",6.8,1150,1070,348,–,–,–,–,–,–,–,–,–
"C[C@@H](C(N)=O)N(C)c1ccc2c(c1)OCCn1cc(N3C(=O)SC[C@H]3C(F)F)nc1-2 [Example 112, (S)-2-((2-((R)-4-(difluoromethyl)-2-oxothiazolidin-3-yl)-5,6-dihydrobenzo[f]imidazo[1,2-d][1,4]oxazepin-9-yl)(methyl)amino)propanamide]",2.2,478,523,69,–,–,–,–,–,–,–,–,–
"C[C@H](Nc1ccc2c(c1)OCCn1cc(N3C(=O)CC[C@H]3CC#N)nc1-2)C(N)=O [Example 117, (S)-2-((2-((S)-2-(cyanomethyl)-5-oxopyrrolidin-1-yl)-5,6-dihydrobenzo[f]imidazo[1,2-d][1,4]oxazepin-9-yl)amino)propanamide]",2.5,505,1950,280,779,–,–,–,–,–,–,202,112
"COC[C@H](Nc1ccc2c(c1)OCCn1cc(N3C(=O)OC[C@H]3CC#N)nc1-2)C(N)=O [Example 120, (S)-2-((2-((R)-4-(cyanomethyl)-2-oxooxazolidin-3-yl)-5,6-dihydrobenzo[f]imidazo[1,2-d][1,4]oxazepin-9-yl)amino)-3-methoxypropanamide]",4.7,530,988,200,210,–,–,–,–,–,–,113,43
